Source: US12667586B2, “Treatments for ocular surface disorders” (Glaukos Corporation, priority 2023, dated 2026)

Assays:
[1] = system: persistent epithelial defect (PED) of the cornea; test: Phase 2 randomized, double-masked, vehicle-controlled study in subjects with persistent epithelial defects (PED) from ocular chemical and/or thermal injuries; type: in vivo, human; conditions: for subjects who achieved corneal epithelial recovery (re-epithelialized by Day 28 and remained so for at least 28 days): topical under bandage contact lens and to fornices, Day 1, Day 2, Day 14 if not re-epithelialized, n=12, full data set
From the text: A Phase 2, Randomized, Prospective, Double-Masked, Vehicle-Controlled Study to Assess the Efficacy and Safety of Lufepirsen® (Lufepirsen) Applied Topically in Subjects with Persistent Epithelial Defects (PED) Resulting from Ocular Chemical and/or Thermal Injuries.
This Example describes the use of an exemplary connexin modulator (lufepirsen) in a randomized, prospective, vehicle-controlled, double-masked, human clinical trial to treat non-healing ocular surface defects. Lufepirsen is a connexin 43 antisense oligonucleotide according to SEQ ID NO:1. The vehicle comparator in the trial was Pluronic F-127.
Study Subjects: A total of 35 subjects were enrolled in this clinical trial. All eligible subjects presented with a non-infected, persistent epithelial defect (PED) of the cornea as a result of a chemical and/or thermal ocular injury, that was refractory to current standard of care for at least 14 days. Of the 35 subjects, 24 subjects received topical ocular dose administrations of […] and 11 subjects received Vehicle. […]
• Corneal epithelial recovery, defined as a cornea that re-epithelializes by Day 28 of treatment and remains re-epithelialized for at least 28 days after initial re-epithelialization was first recorded, as assessed by the Investigator. Secondary Endpoints: • The time to epithelialization defined as the time from randomization to the time of initial re-epithelialization. • Improvement of visual acuity from baseline over the course of the study period. • Number of […] treatment doses required for recovery of the corneal epithelium. Exploratory Endpoints: • Change from baseline in PED area defined as the largest diameter times the largest one perpendicular to it, within the confines of the epithelial defect. • Corneal re-epithelialization, defined as a cornea that has re-epithelialized by Day 28 of treatment. • Change from baseline in ocular symptoms. • Primary, secondary, and exploratory endpoints were also assessed (as applicable) for the open-label section of the study. • Descriptive comparison of intrasubject corneal re-epithelization to fellow eye in subjects with bilateral injuries Safety: • Incidence of Treatment Emergent Adverse Events.
Treatment Dosing: The study comprised of a 28-day Treatment Period, followed by a Post-treatment Follow-up Period of at least 28 days to evaluate both safety and re-epithelization status (durability), both of which were double-masked (i.e., double-blinded). Once determined to be eligible, subjects were randomized to receive either […] 0.06% or […] 0.006% or Vehicle in a 1:1:1 ratio respectively. Investigational product was applied under a bandage contact lens (BCL) and to the fornices of the study eye at the following time points during the Treatment Period: • Day 1 • Day 2 • Day 14 (if the cornea has not re-epithelialized)
The eye was then covered with a double eye pad and taped shut for approximately 8 hours.
Three treatment arms were evaluated in the study. Randomization was in a 1:1:1 ratio: • GROUP A—[…] 0.06% • GROUP B—[…] 0.006% • GROUP C—Vehicle
There was a single application of investigational product on Day 1 and Day 2. A potential additional application of investigational product was scheduled at Day 14 if re-epithelialization has not occurred.
The first investigational product application occurred following randomization on Day 1 of the Treatment Period, with the second application administered on Day 2. […]

[2] = molecular target: gap junctions (Homo sapiens); conditions: at 17 μM; cited from earlier work
gap junctions (Homo sapiens), sequence (P08034 whole entry): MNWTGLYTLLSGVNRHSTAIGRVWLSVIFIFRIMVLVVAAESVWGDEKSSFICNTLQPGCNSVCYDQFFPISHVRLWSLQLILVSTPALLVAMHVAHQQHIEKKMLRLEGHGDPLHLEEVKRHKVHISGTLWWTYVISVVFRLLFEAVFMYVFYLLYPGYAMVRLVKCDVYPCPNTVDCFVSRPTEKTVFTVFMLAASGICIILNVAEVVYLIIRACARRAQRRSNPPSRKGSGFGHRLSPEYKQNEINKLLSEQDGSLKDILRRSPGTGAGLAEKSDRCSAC

Cx43 hemichannels = Cx43 hemichannels (Homo sapiens, UniProt P17302); conditions: cited from earlier work
Cx43 hemichannels, sequence (P17302 2-382 limits assumed): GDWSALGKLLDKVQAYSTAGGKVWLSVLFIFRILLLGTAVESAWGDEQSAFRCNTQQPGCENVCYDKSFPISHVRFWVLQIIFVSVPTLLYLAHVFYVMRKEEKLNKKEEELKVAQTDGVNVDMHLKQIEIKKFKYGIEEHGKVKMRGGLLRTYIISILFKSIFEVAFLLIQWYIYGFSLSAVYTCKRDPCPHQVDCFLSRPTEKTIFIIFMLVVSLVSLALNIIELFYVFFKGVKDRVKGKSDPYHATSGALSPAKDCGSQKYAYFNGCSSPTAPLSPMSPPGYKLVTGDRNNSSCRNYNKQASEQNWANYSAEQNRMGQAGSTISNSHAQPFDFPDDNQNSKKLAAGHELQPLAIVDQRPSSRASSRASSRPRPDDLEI

gap junctions = conditions: in some circumstances; cited from earlier work
[3] = system: ATP release in glioma cells; conditions: read-out: IC50 (half maximal inhibitory concentration) for the inhibition of ATP release; cited from earlier work

## 5′-GTAATTGCGGCAAGAAGAATTGTTTCTGTC-3′ (antisense GTAATTGCGGCAAGAAGAATTGTTTCTGTC; listed as DNA, chemistry not given here)
[1]; LUFEPIRSEN 0.006%
  subjects who achieved corneal epithelial recovery (re-epithelialized by Day 28 and remained so for at least 28 days): 66.7%
[1]; LUFEPIRSEN 0.06%
  subjects who achieved corneal epithelial recovery (re-epithelialized by Day 28 and remained so for at least 28 days): 66.7%
[1]; TEAEs across all 3 treatment groups mild to moderate, unlikely/unrelated to study drug, a SAE not related to study drug
  tolerability of treatment (TEAEs): well tolerated
[1]; both LUFEPIRSEN doses pooled (n=24) vs VEH (n=11)
  times more likely to heal than the vehicle group: 2.44 times
[1]; both LUFEPIRSEN doses pooled (n=24) vs VEH (n=11), Fisher's exact test p=0.065
  comparative improvement in corneal epithelial recovery over the VEH group: 39.4%

## GHGDPLHLEEVKC [^32Gap24, peptide that mimics a 13 amino acid long stretch of the L2 region of Cx32]
[2]
  effect on gap junctions: without affecting gap junctions

## VDCFLSRPTEKT [Peptide5]
Cx43 hemichannels
  concentration at which Cx43 hemichannels are inhibited: 5 to 10 µM
Gap junctions
  concentration at which incubation also leads to inhibition of gap junctions: ≥ 100 µM

## YGRKKRRQRRRKQIEIKKFK [TAT-^43Gap19]
[3]
  IC50: 7 µM
